Data taken from paper PMC11423305, “Structure-Based Design of CBP/EP300 Degraders: When Cooperativity Overcomes Affinity” (JACS Au, 2024).
“Also recorded” adds a separate entry of the source.

Tests used:
Type in all cases: cell-based
LP1 cells = assay: Cell viability (resazurin), LP1; details: Homo sapiens, LP-1, 72 h, 3 days
Procedure: (§1) The primer sequences used were:
(§2) Gene Gene ID Forward Primer (5’-3’) Reverse primer (5’-3’)
(§3) myc NM_001354870.1 GTAGTGGAAAACCAGCC […]
(§4) crebbp NM_004380.3 TGTCACAGGGACAGGTGC […]
(§5) Cells were plated onto 96 well plates at the following densities in 90 μl volume: 3x104
(§6) LP1 cells/well or 5x10^3 LNCaP cells/well both plated same day as treatment, or 2x104
(§7) MM1S cells/well or 1.5x10^3 SH-SY5Y cells/well both plated day prior to treatment.
(§8) Compounds were added in 10 μl to give the stated concentrations with a final
(§9) concentration of 0.1 % DMSO. Following 3 days of compound treatment, resazurin
(§10) (Acros Organics, 189900010) was added at a f inal concentration of 86 μM and incubated
(§11) for the following times: MM1S 5 h, LP1 3 h, LNCaP 1 h 30 min, SH-SY5Y 6 h.
(§12) Fluorescence (excitation = 560 nm, emission = 590 nm) was measured using a
(§13) spectraMax M5 microplate reader (Molecular Devices) and cell viability was calculated
(§14) relative to DMSO treated cells on the same plate. Data was fitted using a four -parameter
(§15) dose-response curve in GraphPad Prism v. 9.5.1, where the top is fixed at 100 %. GI50
(§16) values were calculated as the concentration required to inhibit cell viability to 50 %
(§17) relative to DMSO treated cells after 3 days.
(§18) Sample digestion and clean up: Treated cells were washed in PBS and cell pellets
(§19) were then lysed in 4 % SDS/Tris-HCl, treated with High Intensity Focused Ultrasound […]

MM1S cells = assay: Cell viability (resazurin), MM1S; details: Homo sapiens, MM1.S, 72 h, 3 days
Procedure: as §1, §2, §3, §4, §5, §6, §7, §8, §9, §10, §11, §12, §13, §14, §15, §16, §17, §18, §19

LNCaP cells = assay: Cell viability (resazurin), LNCaP; details: 3 day treatment
Procedure: normalized to DMSO treated lanes on the same membrane. (Several compounds were
measured at the same time, so DMSO treated lanes are replicated here between
Figure S5. Anti-proliferation in additional cell lines. LNCaP (A and C) and SH-SY5Y (B)
cell viability following 3 day compound treatment, and LNCaP following 6 day treatment
(D), determined using resazurin.
After 3 days of treatment, dCE-2 only has a mild effect on the proliferation of LNCaP and
SH-SY5Y cells (Figure S5A and B).
the new CBP/EP300 PROTACs CBPD -268 and CBPD-4092,3 which have enhanced anti-
proliferative activity in LNcaP cells relative to their parent inhibitor s. However, although
these PROTACs have effects at very low concentrations, their effect plateaus and a
substantial proportion of cells remain viable at high compound concentrations. Similarly,
degradation of CBP and EP300, the maximal effect of this PROTAC is also limited under
the conditions we used (Figure S5C). Through this work it was clear to us that these […]
proliferation. […]
concentrations of CRBN, as determined through competition with acetylated peptide […]
as §12
spectraMax M5 microplate reader (Molecular Devices) and cell viability was calculated […]
values were calculated as the concentration required to inhibit cell viability to 50 % […]

Cc1cc2c(NC(=O)c3cc(NC(=O)CCCCCCCCCCNc4cccc5c4C(=O)N(C4CCC(=O)NC4=O)C5=O)cc(-c4ccn(C)n4)c3)cccc2nn1 (stereo not drawn) [dCE-2]
GI50 (LP1 cells): 1500 nM
GI50 (MM1S cells): 35 nM
effect on proliferation of LNCaP cells (LNCaP cells): mild effect; also recorded: limited effect
